Results: ChEMBL document CHEMBL1142784, “Discovery and in vitro evaluation of potent kinase inhibitors: Pyrido[1',2':1,5]pyrazolo[3,4-d]pyrimidines” (Bioorg Med Chem Lett, 2005)

How the values were obtained:
[1] = target: Glycogen synthase kinase-3 (Homo sapiens, UniProt P49840+P49841); assay: Inhibitory concentration against GSK3-beta by using [gamma-33P]-ATP as radioligand expressed in Escherichia coli in pH 7.2 for 19 min at room temperature
[2] = target: Vascular endothelial growth factor receptor (Homo sapiens, UniProt P17948+P35916+P35968); assay: Inhibitory concentration against VEGFR(10 nM) by using homogeneous time-resolved fluorescence detection in pH 7.5
[3] = target: Epidermal growth factor receptor (Homo sapiens, UniProt P00533); assay: Inhibitory concentration against EGFR by using [gamma-33P]-ATP as radioligand in pH 7.5
Chain of Epidermal growth factor receptor (P00533 whole entry): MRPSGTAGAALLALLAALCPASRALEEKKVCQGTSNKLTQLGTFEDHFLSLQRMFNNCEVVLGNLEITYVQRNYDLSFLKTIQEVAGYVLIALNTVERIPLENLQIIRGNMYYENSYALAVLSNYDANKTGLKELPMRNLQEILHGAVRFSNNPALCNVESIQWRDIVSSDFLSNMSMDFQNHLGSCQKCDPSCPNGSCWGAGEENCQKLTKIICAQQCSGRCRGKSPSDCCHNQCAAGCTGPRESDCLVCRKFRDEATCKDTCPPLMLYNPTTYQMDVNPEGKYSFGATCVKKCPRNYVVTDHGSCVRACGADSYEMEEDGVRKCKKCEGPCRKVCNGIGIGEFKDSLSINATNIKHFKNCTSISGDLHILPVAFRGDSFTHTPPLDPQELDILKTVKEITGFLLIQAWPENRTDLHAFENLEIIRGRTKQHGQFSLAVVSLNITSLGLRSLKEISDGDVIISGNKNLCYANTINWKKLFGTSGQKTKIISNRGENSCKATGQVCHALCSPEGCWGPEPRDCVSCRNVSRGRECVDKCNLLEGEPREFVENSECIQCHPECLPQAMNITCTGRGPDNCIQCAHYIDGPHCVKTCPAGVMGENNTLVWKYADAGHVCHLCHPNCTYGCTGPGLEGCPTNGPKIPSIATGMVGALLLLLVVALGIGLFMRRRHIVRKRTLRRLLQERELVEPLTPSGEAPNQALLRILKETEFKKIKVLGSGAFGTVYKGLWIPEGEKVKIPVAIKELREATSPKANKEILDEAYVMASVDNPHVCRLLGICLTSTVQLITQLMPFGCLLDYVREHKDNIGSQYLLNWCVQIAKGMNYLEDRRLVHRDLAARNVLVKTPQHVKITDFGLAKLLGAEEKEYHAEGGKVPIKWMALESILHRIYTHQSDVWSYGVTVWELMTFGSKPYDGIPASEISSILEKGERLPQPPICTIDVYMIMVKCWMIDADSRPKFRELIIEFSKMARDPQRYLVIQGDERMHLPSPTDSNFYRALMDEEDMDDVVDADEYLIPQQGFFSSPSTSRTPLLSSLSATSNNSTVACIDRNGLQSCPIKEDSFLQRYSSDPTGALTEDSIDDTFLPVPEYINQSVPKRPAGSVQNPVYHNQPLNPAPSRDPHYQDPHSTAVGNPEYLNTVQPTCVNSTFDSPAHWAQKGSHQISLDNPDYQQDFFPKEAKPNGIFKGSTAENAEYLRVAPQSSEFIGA

[4] = target: Receptor tyrosine-protein kinase erbB-2 (Homo sapiens, UniProt P04626); assay: Inhibitory concentration against ErbB-2 protein tyrosine kinase by using [gamma-33P]-ATP as radioligand in pH 7.5
Chain of Receptor tyrosine-protein kinase erbB-2 (P04626 whole entry): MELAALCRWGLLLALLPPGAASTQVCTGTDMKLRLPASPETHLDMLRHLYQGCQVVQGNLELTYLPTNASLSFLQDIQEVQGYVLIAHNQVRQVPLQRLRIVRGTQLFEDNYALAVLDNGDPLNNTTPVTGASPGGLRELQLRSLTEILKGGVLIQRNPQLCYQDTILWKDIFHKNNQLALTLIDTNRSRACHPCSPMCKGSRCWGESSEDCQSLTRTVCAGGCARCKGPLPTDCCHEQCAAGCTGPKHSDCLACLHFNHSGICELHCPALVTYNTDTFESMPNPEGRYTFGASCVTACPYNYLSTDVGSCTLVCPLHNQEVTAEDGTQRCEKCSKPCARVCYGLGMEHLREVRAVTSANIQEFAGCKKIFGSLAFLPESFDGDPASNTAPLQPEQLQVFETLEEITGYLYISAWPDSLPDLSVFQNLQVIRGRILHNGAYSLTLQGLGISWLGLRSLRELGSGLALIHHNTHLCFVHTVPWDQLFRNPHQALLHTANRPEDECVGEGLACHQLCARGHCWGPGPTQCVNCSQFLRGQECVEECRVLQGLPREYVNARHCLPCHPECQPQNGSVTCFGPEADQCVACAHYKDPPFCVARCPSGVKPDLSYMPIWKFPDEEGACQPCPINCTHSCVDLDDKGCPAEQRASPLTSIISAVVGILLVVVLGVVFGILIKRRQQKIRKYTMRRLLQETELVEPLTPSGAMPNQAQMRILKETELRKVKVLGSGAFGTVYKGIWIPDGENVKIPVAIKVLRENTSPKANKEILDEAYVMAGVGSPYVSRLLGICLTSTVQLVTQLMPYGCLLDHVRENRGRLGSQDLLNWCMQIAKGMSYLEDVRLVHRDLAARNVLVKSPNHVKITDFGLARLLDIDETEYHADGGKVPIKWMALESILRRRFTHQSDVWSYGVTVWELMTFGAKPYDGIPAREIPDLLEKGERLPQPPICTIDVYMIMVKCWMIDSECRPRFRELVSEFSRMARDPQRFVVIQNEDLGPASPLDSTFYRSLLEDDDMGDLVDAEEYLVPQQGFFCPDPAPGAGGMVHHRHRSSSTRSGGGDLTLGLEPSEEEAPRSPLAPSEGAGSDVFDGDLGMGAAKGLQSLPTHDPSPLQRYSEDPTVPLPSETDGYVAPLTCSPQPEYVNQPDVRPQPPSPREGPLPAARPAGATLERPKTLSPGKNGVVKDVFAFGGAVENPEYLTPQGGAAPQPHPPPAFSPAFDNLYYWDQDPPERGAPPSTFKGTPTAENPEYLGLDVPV

| Structure (SMILES) | IC50 [1] [nM] | IC50 [2] [nM] | IC50 [3] [nM] | IC50 [4] [nM] |
| --- | --- | --- | --- | --- |
| O=C(Nc1cccc(C(F)(F)F)c1)Nc1ncnc2nn3ccccc3c12 | 158 | 251 |  |  |
| O=C(Nc1ccc(Br)cc1)Nc1ncnc2nn3ccccc3c12 | 1000 | 3980 |  |  |
| N#Cc1cccc(NC(=O)Nc2ncnc3nn4ccccc4c23)c1 | 126 | 200 |  |  |
| O=C(Nc1ccc(C(F)(F)F)cc1)Nc1ncnc2nn3ccccc3c12 | 1580 | 3980 |  |  |
| O=C(Nc1cccc([N+](=O)[O-])c1)Nc1ncnc2nn3ccccc3c12 | 316 | > 10000 |  |  |
| Clc1cc(Nc2ncnc3nn4ccccc4c23)ccc1OCc1ccccc1 |  |  | 50 | 200 |
| O=C(Nc1ccc(F)cc1)Nc1ncnc2nn3ccccc3c12 | > 10000 | 631 |  |  |
| c1ccc(Cc2nc3ccc(Nc4ncnc5nn6ccccc6c45)cc3[nH]2)cc1 |  |  | 5010 | 1580 |
| Nc1ncnc2nn3ccccc3c12 |  |  | > 10000 | > 10000 |
